Source: US20100227853A1, “INHIBITORS OF CYCLIC AMP PHOSPHODIESTERASES” (Trustees of Boston College, priority 2008, published 2010)
“And” between values parts separate entries of the source, which are not always exact repeats. Equal values may be shown once. “Also recorded” adds a separate entry of the source.

What was measured:
[1] = system: PDE4A, PDE4B, PDE4D, PDE7A, PDE7B, PDE8A, PDE3A; experiment: Summary of PDE inhibitor profile; parameters: key: (1): Weak PDE7A inhibitor; (2): Strong PDE7A inhibitor; (3): Lillte/no activity under conditions used; (4): Weak PDE4A inhibitor; details: overall classification, Table 18 footnotes
PDE7A = PDE7A (Homo sapiens, UniProt Q13946); experiment: cAMP response in yeast strain expressing PDE7A; format: cell-based; parameters: targets used in the assays are full-length proteins (as opposed to simply the catalytic domain); expressed in transfected cells; host or cells: Schizosaccharomyces pombe, PDE gene integrated in place of cgs2; details: PDE 7A; relative to BRL50481
Sequence of PDE7A (Q13946 whole entry, the tested form may be a part): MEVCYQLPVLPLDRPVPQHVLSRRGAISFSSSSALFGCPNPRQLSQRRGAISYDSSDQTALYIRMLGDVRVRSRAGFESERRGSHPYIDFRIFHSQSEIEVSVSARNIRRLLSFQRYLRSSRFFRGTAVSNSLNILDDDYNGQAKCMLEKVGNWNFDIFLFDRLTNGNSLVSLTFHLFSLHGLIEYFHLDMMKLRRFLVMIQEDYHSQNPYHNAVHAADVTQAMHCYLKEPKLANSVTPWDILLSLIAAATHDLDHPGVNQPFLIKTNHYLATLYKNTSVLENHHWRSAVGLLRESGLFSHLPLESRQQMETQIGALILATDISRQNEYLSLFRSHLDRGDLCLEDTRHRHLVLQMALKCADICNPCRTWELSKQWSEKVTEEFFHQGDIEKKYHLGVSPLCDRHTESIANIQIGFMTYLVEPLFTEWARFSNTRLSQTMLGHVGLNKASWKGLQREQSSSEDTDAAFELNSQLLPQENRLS

PDE7B [2] = target: T1, PDE7B (Rattus norvegicus, UniProt A0A0G2JXU0); experiment: in vitro enzyme assay of PDE7B activity in extracts from rat pulmonary endothelial cells; format: biochemical
T1 construct: endogenous in cells; host or cells: rat pulmonary endothelial cells (extract)
T1 sequence (A0A0G2JXU0 1-446): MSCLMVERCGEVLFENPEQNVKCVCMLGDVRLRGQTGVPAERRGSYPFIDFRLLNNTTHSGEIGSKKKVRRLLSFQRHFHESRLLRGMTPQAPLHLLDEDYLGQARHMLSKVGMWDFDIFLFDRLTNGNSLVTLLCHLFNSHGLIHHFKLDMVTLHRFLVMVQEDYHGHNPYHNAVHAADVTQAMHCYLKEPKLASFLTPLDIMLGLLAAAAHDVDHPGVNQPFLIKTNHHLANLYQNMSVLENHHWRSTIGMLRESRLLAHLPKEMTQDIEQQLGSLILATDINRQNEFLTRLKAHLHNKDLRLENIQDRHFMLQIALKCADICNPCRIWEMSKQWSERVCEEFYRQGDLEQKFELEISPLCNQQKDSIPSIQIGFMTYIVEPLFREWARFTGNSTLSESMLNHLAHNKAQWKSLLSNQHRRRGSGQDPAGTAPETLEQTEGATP
Text: FIG. 13 is the in vitro enzyme assays of PDE7B activity in extracts made from rat pulmonary endothelial cells.

U937 cells = experiment: TNF alpha release by LPS-treated U937 cells; format: cell-based
PDE7B [3] = target: PDE7B (Homo sapiens, UniProt Q9NP56); experiment: cAMP elevation in yeast PDE7B-expressing strain; format: cell-based; parameters: targets used in the assays are full-length proteins (as opposed to simply the catalytic domain); expressed in transfected cells; host or cells: Schizosaccharomyces pombe
Sequence of PDE7B (Homo sapiens, UniProt Q9NP56) (Q9NP56 whole entry, species assumed, the tested form may be a part): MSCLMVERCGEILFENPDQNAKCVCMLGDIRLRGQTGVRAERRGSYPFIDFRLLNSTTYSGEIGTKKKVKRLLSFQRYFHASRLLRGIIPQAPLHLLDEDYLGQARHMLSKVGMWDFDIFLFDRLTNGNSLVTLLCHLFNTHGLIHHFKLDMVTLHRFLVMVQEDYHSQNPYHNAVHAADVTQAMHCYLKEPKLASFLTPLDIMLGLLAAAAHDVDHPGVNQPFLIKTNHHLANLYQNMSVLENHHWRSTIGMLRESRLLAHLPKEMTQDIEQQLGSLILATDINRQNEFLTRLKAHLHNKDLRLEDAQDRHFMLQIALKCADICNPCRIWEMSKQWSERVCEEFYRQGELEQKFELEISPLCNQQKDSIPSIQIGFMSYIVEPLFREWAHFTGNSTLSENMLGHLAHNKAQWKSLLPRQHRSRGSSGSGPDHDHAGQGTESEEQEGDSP

[4] = system: PDE4A, PDE4B, PDE4D, PDE7A, PDE7B, PDE8A, PDE3A; experiment: Summary of PDE inhibitor profile
Jurkat cells = experiment: IL2 secretion by concanavalin A treated Jurkat cells; format: cell-based, human; details: ConA 10 μg/ml, prostaglandin E2, 24 hours
Text: Jurkat cells, a human T cell lymphoblast-like cell line, increase expression of the cytokine IL2 in response to stimulation by concanavalin A (conA). This effect can be inhibited by elevated cAMP levels, although PDE4 inhibition alone appears to be insufficient to prevent IL2 induction (Kaminuma et al., Immunopharmacology, 1998 January; 38(3):247-52). However, the anti-inflammatory effect of PDE4 inhibitors can be detected using this assay by their ability to enhance the reduction of IL2 secretion by prostaglandin E2. IL2 levels are measured in Jurkat cells (5×10^5 cells/ml) stimulated by 10 μg/ml ConA in the presence of prostaglandin E2, with or without each test compound ([…]). After incubation at 37° C. for 24 hours, the resulting supernatant were collected and kept frozen at −70° C. until the time of assay. IL2 in the supernatants were measured by ELISA and the data is presented as a percentage of the PGE2 treated culture (FIG. 12).

PBMC cells = experiment: proliferation and viability of PBMC cells; format: cell-based
Text: FIGS. 8A, 8B and 8C show the effect of BC54 on the proliferation and viability of PBMC cells.

SIVmac239 = experiment: antiviral activity, SIV p27 ELISA in infected PBMC; format: cell-based, rhesus macaques; details: for reduction in viral load: treatment on Day 1 and Day 3, SIV p27 ELISA
Experimental: PBMC cells were isolated from uninfected rhesus macaques and mitogen stimulated (PHA). The cells were then incubated with SIVmac239 for 2 hours, following which they were washed to remove any free virus. BC54 was then added to the infected cells. Fresh compound was added after 3 days. The antiviral activity was measured by SIV p27 ELISA on day 3 and 7, while the cell viability was determined on day 7 by MTT assay. The treatment of cells on Day 1 and Day 3, leads to a 30-fold and 100-fold reduction in viral load on Days 4 and 7, respectively.

[5] = system: transplanted tumors (lymphomas); experiment: in vivo assay in mice with transplanted tumors (lymphomas)
Experimental: FIGS. 7A and 7B show results of an in vivo assay of BC54 action.
A 7 day experiment was conducted to determine the effect of BC54 on mice having transplanted tumors (lymphomas). Drugs were given i.p. once a day in 60-100 ul of PBS. • 3 animals got just BC54—to assess toxicity • 3 animals injected with lymphoma and treated with BC54 • 3 animals—no treatment • 1 animal—CHOP 0.5 MTD
BC54 dose was 3 ul of 100 mM solution per mouse per injection. […]. […] After 7 days, the untreated mice were terminally ill. The group treated with BC54 looked better although they do show some clinical signs (hunched posture etc). […] Tumor load was evaluated in the spleen and in the peritoneal lymph nodes (FIG. 7).

Lymphoma cells = experiment: in vitro assay on lymphoma cells (24 hours, Hoechst stain, fsc/ssc); format: cell-based
Experimental: FIGS. 6A and 6B show the in vitro assay of BC54 action. Lymphoma cells are treated with the drug for 24 hours, then stained with Hoechst dye. The cells form a clearly defined population on the fsc/ssc dot plot. Vincristine treatment was used as a positive control. […] BC54 is referred to in the figure as S54.

CLL = CLL assay; format: cell-based

COc1ccc2c(c1)C1(C)CCC(=O)CC1CC2 (single isomer, unassigned) [Compound 11]
PDE inhibitor profile (Table 18) [1]: 11 (3)
cAMP Response (% BRL50481) 7A (PDE7A): 89.00 % BRL50481

Cc1sc2ncnc(NC3CCCCC3)c2c1C [BC28]
KI lower than that of BRL50481 (PDE7B [2]; PDE7B, rat pulmonary endothelial cell extracts): approximately 100 fold
Ki (PDE7B [2]; cell extracts, read-out: KI on PDE7 (PDE7B) from rat pulmonary endothelial cells): ~200 nM and 200 nM
TNF alpha reduction, conclusion in words (U937 cells): TNFα synergy with PDE4 inhibitors, though not as strong as for BC30
cAMP in yeast PDE7B-expressing strain, in words (PDE7B [3]): induced cAMP elevation
PDE inhibitor profile, in words [4]: potent PDE7B inhibitor
IL2 expression from Jurkat cells, in words (Jurkat cells): strong reduction

CCOC(=O)c1cc2c(=O)n3ccccc3nc2n(C2CCCCC2)/c1=N/C(C)=O [BC54]
toxicity to PBMC cells (proliferation and viability) (PBMC cells): not found to be very toxic
efficacy in SIV cell culture, in words (SIVmac239): effective
reduction in viral load (SIVmac239; Day 4): 30 fold
reduction in viral load (SIVmac239; Day 7): 100 fold
toxicity in mice ([5]; 3 ul of 100 mM solution per mouse per injection, i.p. once a day): no major signs of toxicity
spleen tumor burden ([5]; i.p. once a day, 7 days): No significant effect
tumor load in lymph nodes ([5]; i.p. once a day, 7 days): reduces the tumor load in lymph nodes
clinical appearance after 7 days ([5]; lymphoma-bearing mice): looked better
efficacy in mouse DLBCL model, in words ([5]; mouse, in vivo): effective
TNF alpha reduction, conclusion in words (U937 cells): good activity
PDE inhibitor profile, in words [4]: good PDE4 and PDE7 combination inhibitor; also recorded: affects PDE4D, but is weaker than on other 4 s and 7 s
effect on PDE8A or PDE3A [4]: no effect
apoptosis of lymphoma cells, in words (Lymphoma cells): induces apoptosis
"live" population gone (Lymphoma cells; 24 hours treatment): ~100%
activity in CLL assay, in words (CLL): good activity
